Biological target: T1, human ANO6 (variant 5) (Homo sapiens, UniProt Q4KMQ2)
T1 construct: expressed in transfected cells; host or cells: Fischer rat thyroid (FRT) cells
T1 sequence (Q4KMQ2 1-931 isoform Q4KMQ2-2): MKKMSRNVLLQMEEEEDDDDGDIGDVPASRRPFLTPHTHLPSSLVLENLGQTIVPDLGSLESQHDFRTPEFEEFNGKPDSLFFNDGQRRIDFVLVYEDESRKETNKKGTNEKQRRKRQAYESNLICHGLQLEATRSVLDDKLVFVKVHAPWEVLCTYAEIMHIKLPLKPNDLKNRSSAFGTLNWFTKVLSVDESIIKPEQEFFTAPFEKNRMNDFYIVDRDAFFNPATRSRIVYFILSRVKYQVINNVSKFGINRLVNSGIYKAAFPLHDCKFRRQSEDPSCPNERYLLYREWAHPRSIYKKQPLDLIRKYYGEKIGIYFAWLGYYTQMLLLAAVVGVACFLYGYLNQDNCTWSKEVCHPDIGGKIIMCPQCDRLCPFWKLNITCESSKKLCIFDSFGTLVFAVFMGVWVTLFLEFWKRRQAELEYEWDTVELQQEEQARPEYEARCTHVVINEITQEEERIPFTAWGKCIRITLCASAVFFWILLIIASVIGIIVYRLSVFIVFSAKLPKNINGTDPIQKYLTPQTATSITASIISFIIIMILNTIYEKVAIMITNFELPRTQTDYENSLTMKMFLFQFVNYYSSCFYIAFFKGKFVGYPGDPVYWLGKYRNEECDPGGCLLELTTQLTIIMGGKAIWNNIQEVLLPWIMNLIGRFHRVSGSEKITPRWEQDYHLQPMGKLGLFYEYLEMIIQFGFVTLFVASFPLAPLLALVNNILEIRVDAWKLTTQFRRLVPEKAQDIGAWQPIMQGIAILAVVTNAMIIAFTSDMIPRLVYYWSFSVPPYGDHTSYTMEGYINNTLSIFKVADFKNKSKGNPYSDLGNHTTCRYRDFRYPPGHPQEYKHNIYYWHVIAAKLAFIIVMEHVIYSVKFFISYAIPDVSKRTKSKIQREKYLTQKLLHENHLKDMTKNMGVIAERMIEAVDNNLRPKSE
Test: Lact C2 assay (measuring phosphatidylserine externalization scramblase function)
Type: cell-based
Conditions: FRT cells expressing human ANO6 (variant 5), ionomycin 10 µM, Lact-C2-GFP fluorescence, average of three tests; for inhibition at 0.05 µM / inhibition at 0.1 µM / inhibition at 1 µM: FRT; for inhibition at 0.05 µM / % Inhibition 50 nM: compound 50 nM; for inhibition at 0.05 µM: read-out: % Inhibition 50 nM; for inhibition at 1 µM: compound 1 µM, read-out: % Inhibition 1 µM
Experimental: Ionomycin (Alomonelab, cat. # I-700), DAPI (Sigma- Aldrich, cat. # D8417), paraformaldehyde (Biosesang, cat. #P2031), Lionheart FX automated fluorescence microscope (BioTek), Gen5™ software program (BioTek), and Image J analysis software program.
After the incubation, the cells were treated with compounds dissolved in DMSO to 1% v/v in each well at each concentration (50 nM, 100 nM, and 1 µM) and reacted for 10 minutes. Thereafter, each well was treated with ionomycin to a final concentration of 10 µM, allowed to react for 10 minutes, and then washed with 200 µL PBS. After washing, each well was treated with 50 µL of Lactadherin-C2 (Lact-C2)-GFP mixed in DMEM medium to a final concentration of 500 nM to stain phosphatidylserine, and cultured at 37°C for 10 minutes. After completion of the reaction, the cells were washed with 200 µL PBS, and fixed with 4% paraformaldehyde for 5 minutes at room temperature. For morphological analysis, DAPI solution was added, and the cells were incubated for 15 minutes, followed by washing with PBS. The fluorescence intensity of Lact-C2-GFP bound to phosphatidylserine on the cell surface was measured using an automated fluorescence microscope. For quantitative analysis of the fluorescence intensity of Lact-C2-GFP, BioTek Gen5™ software and Image J analysis software programs were used.
Phosphatidylserine externalization inhibitory activity (%) by the compound was calculated through the following analysis method. Specifically, the background fluorescence value was subtracted from the measured Lact-C2-GFP fluorescence value, and the fluorescence value of the ionomycin non-treatment group and the ionomycin-treatment group in the same row where each test group was located in a 96-well microplate were calculated. In order to calculate the inhibitory activity (%) by the compound, the relative inhibitory activity was calculated by setting the compound and ionomycin non-treatment group to 100% inhibitory activity and the ionomycin alone treatment group to 0% inhibitory activity.

SMILES	inhibition at 0.05 µM [%]	inhibition at 0.1 µM (compound 100 nM) [%]	inhibition at 1 µM [%]	% Inhibition 50 nM	% Inhibition 100 nM (compound 100 nM)
c1cnc(-c2ccc(Nc3cccc(-c4nc5ccccc5[nH]4)c3)cc2)nc1 [Example 26, N-[3-(1H-benzo[d]imidazol-2-yl)phenyl]-4-(pyrimidin-2-yl)aniline]	> 60	> 60	> 60		
FC(F)(F)c1ccc2nc(-c3cccc(Nc4ccc(-c5ncccn5)cc4)c3)[nH]c2c1 [Example 27, N-[4-(pyrimidin-2-yl)phenyl]-3-[6-(trifluoromethyl)-1H-benzo[d]imidazol-2-yl]aniline]	> 60	> 60	> 60		
FC(F)(F)c1ccc2nc(-c3cccc(Nc4ccc(-c5cncnc5)cc4)c3)[nH]c2c1 [Example 28, N-[4-(pyrimidin-5-yl)phenyl]-3-[6-(trifluoromethyl)-1H-benzo[d]imidazol-2-yl]aniline]	> 60	> 60			
FC(F)(F)c1ccc2nc(-c3cccc(Nc4ccc(-c5cnccn5)cc4)c3)[nH]c2c1 [Example 29, N-[4-(pyrazin-2-yl)phenyl]-3-[6-(trifluoromethyl)-1H-benzo[d]imidazol-2-yl]aniline]	> 60	> 60			
c1cc(Nc2ccc(-c3cncnc3)cc2)cc(-c2nc3ccccc3[nH]2)c1 [Example 30, 3-(1H-benzo[d]imidazol-2-yl)-N-(4-(pyrimidin-5-yl)phenyl)aniline]	30 to 60	30 to 60			
c1cncc(-c2ccc(Nc3cccc(-c4nc5ccccc5[nH]4)c3)cc2)c1 [Example 31, N-[3-(1H-benzo[d]imidazol-2-yl)phenyl]-4-(pyridin-3-yl)aniline]	30 to 60	> 60			
c1cc(Nc2ccc(-c3cnccn3)cc2)cc(-c2nc3ccccc3[nH]2)c1 [Example 32, 3-(1H-benzo[d]imidazol-2-yl)-N-(4-(pyrazin-2-yl)phenyl)aniline]	30 to 60	30 to 60			
c1cc(Nc2ccc(-c3ccncc3)cc2)cc(-c2nc3ccccc3[nH]2)c1 [Example 33, N-[3-(1H-benzo[d]imidazol-2-yl)phenyl]-4-(pyridin-4-yl)aniline]	30 to 60	30 to 60			
Cc1cscc1-c1cnc(Nc2cccc(-c3nc4ccccc4[nH]3)c2)nc1 [Example 43, N-(3-(1H-benzo[d]imidazol-2-yl)phenyl)-5-(4-methylthiophen-3-yl)pyrimidin-2-amine]	> 60	> 60			
c1ccc(-c2cnc(Nc3cccc(-c4nc5ccccc5[nH]4)c3)nc2)nc1 [Example 44, N-(3-(1H-benzo[d]imidazol-2-yl)phenyl)-5-(pyridin-2-yl)pyrimidin-2-amine]	> 60	> 60			
Fc1ccc2nc(-c3cccc(Nc4ncc(-c5ccccn5)cn4)c3)[nH]c2c1 [Example 45, N-[3-(6-fluoro-1H-benzo[d]imidazol-2-yl)phenyl]-5-(pyridin-2-yl)pyrimidin-2-amine]	> 60	> 60			
Fc1ccc2nc(-c3cccc(Nc4ncc(-c5cccnn5)cn4)c3)[nH]c2c1 [Example 51, N-(3-(6-fluoro-1H-benzo[d]imidazol-2-yl)phenyl)-5-(pyridazin-3-yl)pyrimidin-2-amine]		> 60		B (30 to 60% inhibition)	
FC(F)(F)c1ccc2nc(-c3cccc(Nc4ncc(-c5cccnn5)cn4)c3)[nH]c2c1 [Example 52, 5-(pyridazin-3-yl)-N-(3-(6-(trifluoromethyl)-1H-benzo[d]imidazol-2-yl)phenyl)pyrimidin-2-amine]	> 60	> 60			
c1cc(Nc2ncc(-c3cccnn3)cn2)cc(-c2nc3ccccc3[nH]2)c1 [Example 53, N-[3-(1H-benzo[d]imidazol-2-yl)phenyl]-5-(pyridazin-3-yl)pyrimidin-2-amine]	30 to 60	30 to 60			
Fc1ccc2nc(-c3cccc(Nc4ncc(-c5cccnn5)cn4)c3)[nH]c2c1 [Example 55, N-(3-(6-fluoro-1H-benzo[d]imidazol-2-yl)phenyl)-5-(pyridazin-3-yl)pyrimidin-2-amine]				A (> 60% inhibition)	A (> 60% inhibition)
c1cc(Nc2ccc(-c3cccnn3)cn2)cc(-c2nc3ccccc3[nH]2)c1 [Example 56, N-[3-(1H-benzo[d]imidazol-2-yl)phenyl]-5-(pyridazin-3-yl)pyridin-2-amine]	30 to 60	> 60			
FC(F)(F)c1ccc2nc(-c3cccc(Nc4ccc(-c5ccccn5)cn4)c3)[nH]c2c1 [Example 57, N-{3-[6-(trifluoromethyl)-1H-benzo[d]imidazol-2-yl]phenyl}-[2,3'-bipyridin]-6'-amine]	> 60	> 60			
Fc1ccc2nc(-c3cccc(Nc4ccc(-c5ccccn5)cn4)c3)[nH]c2c1 [Example 58, N-(3-(6-fluoro-1H-benzo[d]imidazol-2-yl)phenyl)-[2,3'-bipyridine]-6'-amine]	> 60	> 60			
c1ccc(-c2ccc(Nc3cccc(-c4nc5ccccc5[nH]4)c3)nc2)nc1 [Example 59, N-[3-(1H-benzo[d]imidazol-2-yl)phenyl]-[2,3'-bipyridin]-6'-amine]	> 60	> 60			
COC(=O)c1ccc2nc(-c3cccc(Nc4ccc(-c5cccnn5)cc4)c3)[nH]c2c1 [Example 61, methyl 2-(3-((4-(pyridazin-3-yl)phenyl)amino)phenyl)-1H-benzo[d]imidazol-6-carboxylate]	> 60	> 60			
FC(F)(F)c1ccc2nc(-c3cccc(Nc4ncc(-c5ncccn5)cn4)c3)[nH]c2c1 [Example 63, N-{3-[6-(trifluoromethyl)-1H-benzo[d]imidazol-2-yl]phenyl}-[2,5'-bipyrimidin]-2'-amine]	> 60	> 60			
Clc1cc2[nH]c(-c3cccc(Nc4ncc(-c5ccccn5)cn4)c3)nc2cn1 [Example 64, N-(3-(6-chloro-1H-imidazolo[4,5-c]pyridin-2-yl)phenyl)-5-(pyridin-2-yl)pyrimidin-2-amine]	30 to 60	30 to 60			
c1cc(Nc2ccc(-c3ccncn3)cn2)cc(-c2nc3ccccc3[nH]2)c1 [Example 68, N-[3-(1H-benzo[d]imidazol-2-yl)phenyl]-5-(pyrimidin-4-yl)pyridin-2-amine]	> 60	> 60			
c1cnc(-c2ccc(Nc3cccc(-c4nc5ccccc5[nH]4)c3)nc2)nc1 [Example 69, N-(3-(lH-benzo[d]imidazol-2-yl)phenyl)-5-(pyrimidin-2-yl)pyridin-2-amine]		30 to 60			
Fc1ccc2nc(-c3cccc(Nc4ccc(-c5ccncn5)cn4)c3)[nH]c2c1 [Example 72, N-(3-(6-fluoro-1H-benzo[d]imidazol-2-yl)phenyl)-5-(pyrimidin-4-yl)pyridin-2-amine]	> 60	> 60			
